The term CC50 denotes the concentration that lowers cell viability or growth by half. Low values mean harm at low concentration, high ones better tolerance by the cells.

Peptide text beside a SMILES is read from it. * marks the point of attachment. Dansyl = CN(C)c1cccc2c(S(=O)(=O)*)cccc12

This data set can be described thus: Effect of heparin-binding peptides on cellular viability (CellTiter 96 AQueous colorimetric metabolic assay). As to conditions: mouse, 3T3 fibroblasts.

Procedure: 3T3 fibroblasts were incubated with various doses of W-PBD1 () and dG-PBD1 (▪) peptide (n=3). Viability was measured using a colorimetric metabolic assay based on the reduction of a tetrazolium salt into a formazan product.
In one example to show toxicity of two heparin binding peptides, 3T3 fibroblasts were treated with various concentrations of two different heparin binding peptides. Cell viability was assessed using the CellTiter 96® AQueous reagent (Promega, Madison, Wis.) after 1 hour at 37° C. in a humidified incubator with 5% CO2, following the manufacturer's protocol, incorporated by reference herein. Briefly, 3T3 fibroblasts were cultured at 37° C. in a humidified incubator with 5% CO2 using Dulbecco's modified Eagle Medium (DMEM) containing 10% fetal bovine serume (FBS), pen/strep, and 2 mM glutamine (Invitrogen). Serial dilutions of dG-PGB1 and W-PBD-1 using PBS as the diluent, and 75 μl of the dilutions were transferred in triplicate into the wells of a 96-well microtiter plate. […] Finally, the absorbance at 490 mm was measured with a microplate spectrophotometer. […] The amount of viable cells was determined by subtracting the absorbance readings of media containing blank wells from every other well and comparing the ratio of the absorbance reading for each sample with that of the positive control.

Compound `CC(C)C[C@H](NC(=O)[C@H](CCCCN)NC(=O)[C@H](C)NC(=O)[C@H](Cc1ccccc1)NC(=O)[C@H](C)NC(=O)[C@H](CCCCN)NC(=O)[C@@H](N)Cc1c[nH]c2ccccc12)C(=O)N[C@@H](C)C(=O)N[C@@H](C)C(=O)N[C@@H](CCCNC(=N)N)C(=O)N[C@@H](CC(C)C)C(=O)N[C@@H](Cc1ccc(O)cc1)C(=O)N[C@@H](CCCNC(=N)N)C(=O)N[C@@H](CCCCN)C(=O)N[C@@H](C)C(=O)NCC(=O)N[C@@H](CS)C(=O)O` [W-PBD1, WKAFAKLAARLYRKAGC] (H-WKAFAKLAARLYRKAGC-OH; N-terminus and C-terminus assumed) returned a CC50 at 1 h of 58.1 ± 7.3 µM.

Take `CC(C)C[C@H](NC(=O)[C@H](CCCCN)NC(=O)[C@H](C)NC(=O)[C@H](Cc1ccccc1)NC(=O)[C@H](C)NC(=O)[C@H](CCCCN)NC(=O)CNS(=O)(=O)c1cccc2c(N(C)C)cccc12)C(=O)N[C@@H](C)C(=O)N[C@@H](C)C(=O)N[C@@H](CCCNC(=N)N)C(=O)N[C@@H](CC(C)C)C(=O)N[C@@H](Cc1ccc(O)cc1)C(=O)N[C@@H](CCCNC(=N)N)C(=O)N[C@@H](CCCCN)C(=O)N[C@@H](C)C(=O)NCC(=O)N[C@@H](CS)C(=O)O` [dG-PBD1, dansyl-GKAFAKLAARLYRKAGC] (Dansyl-GKAFAKLAARLYRKAGC-OH): the midpoint of cytotoxicity, the CC50 at 1 h, lay at 19.3 ± 1.1 µM.
